# Several values for one entry are separate records, joined by “and”; a condition that tells them apart may be missing. Identical values can stand only once.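 1) Cells in 96-well plates. 2) Compound, 48 h, 5 concentrations. 3) Linear interpolation between surrounding doses. 4) Unreached endpoint = highest concentration. TGI: total growth inhibition.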 Peptide text beside a SMILES is read from it. * marks the point of attachment. X34 = O=C(c1ccc(-c2ccc(Cl)cc2Cl)o1)*
# Assays:
# Assay in all cases: growth of human tumour cells (NCI), 48 h
# SF-539 CNS = tested on: SF-539 CNS
# EKVX NSCLC = tested on: EKVX NSCLC
# SK-OV-3 ovarian = tested on: SK-OV-3 ovarian
# NCI-H460 lung = tested on: NCI-H460 lung
# NCI-H23 lung = tested on: NCI-H23 lung
# HCT-116 colon = tested on: HCT-116 colon
# NCI/ADR-RES ovarian = tested on: NCI/ADR-RES ovarian
# OVCAR-8 ovarian = tested on: OVCAR-8 ovarian
# HT29 colon = tested on: HT29 colon
# A498 renal = tested on: A498 renal
# HOP-62 NSCLC = tested on: HOP-62 NSCLC
# SK-MEL-2 melanoma = tested on: SK-MEL-2 melanoma
# HL-60(TB) leukemia = tested on: HL-60(TB) leukemia
# KM12 colon = tested on: KM12 colon
# T-47D breast = tested on: T-47D breast
# DU-145 prostate = tested on: DU-145 prostate
# MDA-MB-231 breast = tested on: MDA-MB-231 breast
# 786-0 renal = tested on: 786-0 renal
# HS 578T breast = tested on: HS 578T breast
Compound,TGI (SF-539 CNS) [µM],TGI (EKVX NSCLC),TGI (SK-OV-3 ovarian),TGI (NCI-H460 lung) [µM],TGI (NCI-H23 lung) [µM],TGI (HCT-116 colon) [µM],TGI (NCI/ADR-RES ovarian) [µM],TGI (OVCAR-8 ovarian),TGI (HT29 colon) [µM],TGI (A498 renal) [µM],TGI (HOP-62 NSCLC) [µM],TGI (SK-MEL-2 melanoma),TGI (HL-60(TB) leukemia) [µM],TGI (KM12 colon) [µM],TGI (T-47D breast) [µM],TGI (DU-145 prostate) [µM],TGI (MDA-MB-231 breast) [µM],TGI (786-0 renal) [µM],TGI (HS 578T breast) [µM]
O=c1oc2cc(O)ccc2c2oc3cc(O)ccc3c12,122,> 125 µM,70.8 µM,> 113,> 125,70.2,> 125,> 125 µM,> 125,3.4,54.1,> 125 µM,> 125,> 125,,,,,
CC(ON1[C@](C)(c2ccccc2)CC[C@@]1(C)c1ccccc1)c1ccccc1 (some centres not stated),> 100,77.9 µM,> 100 µM,> 100,> 100,> 100,> 100,> 100 µM,> 100,,> 100,50.5 µM,61.5,> 100,87.3,> 100,> 100,> 100,> 100
O=C1NC(=NCc2ccc(F)cc2)N/C1=C\c1ccccc1Cl,> 100,58.2 µM,63.2 µM,> 100,,30.3,86.1,29.3 µM,29.5,34,35.3,33.3 µM,36.5,53.9,29.4,46.8,41.8,24,> 100
O=C1CCCCN1,> 1120,> 350 µM,> 1120 µM,> 1120,> 1120,> 1120,> 707,> 1120 µM,> 1120,> 52,> 1120,> 1120 µM,> 1120,> 1120,,,,,
CCCCC(=O)c1c(O)ccc2c(C)cc(=O)oc12,> 100,> 100 µM,,> 100,> 100,> 100,> 100,> 100 µM,> 100,> 100,> 100,> 100 µM,> 100,> 100,51.4,> 100,> 100,> 100,> 100
O=C1CCC2(CC1CCS(=O)c1ccccc1)OCCO2 (configuration not stated),> 100,> 100 µM,> 100 µM,> 100,> 100,,> 100,> 100 µM,> 100,> 100,> 100,> 100 µM,> 100,> 100,> 100,> 100,> 100,> 100,> 100
CC(C)CNCCc1ccccn1,,> 100 µM,> 100 µM,> 100,> 100,> 100,> 100,> 100 µM,> 100,> 100,> 100,> 100 µM,> 100,> 100,,> 100,> 100,> 100,> 100
CC1(O)C2(c3ccccc3)CCC[N+]1(C)CC2 (configuration not stated),,,> 100 µM,> 100,> 100,> 100,> 100,> 100 µM,> 100,> 100,> 100,> 100 µM,> 100,> 100,> 100,> 100,> 100,,> 100
COC(=O)/C=C\C(C#N)(C#N)N=Cc1cccs1,,25.2 µM,42.3 µM,39.7,27.3,> 50.2,45,14.4 µM,4.24,34.3,32.6,34.3 µM,4.2,37.8,7.51,24.3,5.74,> 46.3,78.3
C=CCn1c(=O)c(Br)nn(CCOCP(=O)(OCC)OCC)c1=O,> 100,> 100 µM,,> 100,> 100,,> 100,> 100 µM,,> 100,> 100,> 100 µM,> 100,> 100,> 100,> 100,> 100,,> 100
CC[C@@]1(O)C[C@H](OC2CC(N(C)C)C(OC3CC(O)C(OC4CCC(=O)C(C)O4)C(C)O3)C(C)O2)c2c(cc3c(c2O)C(=O)c2c(O)cccc2C3=O)C1C(=O)OC (some centres not stated),,3.02 µM and 1.35 µM,6 µM and 12.7 µM,1.42,0.635,,0.673,0.679 µM and 4.49 µM,1.42,0.213,1.58,0.0581 µM and 0.425 µM,,,,0.446,0.058,,0.618
Cc1cn(C2CC(N=[N+]=[N-])C(CO)O2)c(=O)n(CCCCBr)c1=O (configuration not stated),> 100,> 100 µM,> 100 µM,> 100,> 100,> 100,> 100,> 100 µM,> 100,> 100,> 100,> 100 µM,,> 100,> 100,> 100,> 100,> 100,> 100
Cn1c2ccccc2c2c3c(c4c5ccccc5n(C5OC(CO)C(O)C(O)C5O)c4c21)C(=O)OC3=O (configuration not stated),> 100,> 100 µM,> 100 µM,> 100,> 100,> 100,> 100,> 100 µM,> 100,> 100,> 100,> 100 µM,,> 100,> 100,> 100,> 100,> 100,> 100
COC(=O)C(CC(C)C)NC(=O)C(Cc1ccccc1)NC(=O)C1CCCN1C(=O)C(CO)NC(=O)c1ccc(-c2ccc(Cl)cc2Cl)o1 (configuration not stated) (X34-SPFL-OMe; configuration not given here),60.4,,25.7 µM,38.9,97.6,92.1,92.8,> 100 µM,40.7,76.5,,33.7 µM,69.6,> 100,> 100,> 100,32.3,56.9,> 100
OCC(O)COCn1cc(Cn2ncc3c(NCc4ccccc4)ncnc32)nn1 (configuration not stated),> 100,> 100 µM,> 100 µM,,> 100,> 100,> 100,> 100 µM,> 100,> 100,> 100,> 100 µM,> 100,> 100,> 100,> 100,> 100,> 100,47.9
CC(=O)OCCCCN1C(=O)CSc2ccccc21,> 100,> 100 µM,> 100 µM,> 100,,> 100,,,,> 100,> 100,> 100 µM,> 100,> 100,> 100,> 100,,,> 100
CN1c2c(nc(N)[nH]c2=O)NCC1CCNc1ccc(C(=O)NC(CCC(=O)O)C(=O)O)cc1 (configuration not stated),2190,2720 µM,2350 µM,1570,3630,1390,3810,2640 µM,1310,2820,1930,3050 µM,2250,2220,4260,2660,3050,1840,5910
CCOc1cc(C2SCC(=O)N2c2ccc3c(c2)Oc2c(Cl)c4c(c(Cl)c2=N3)Oc2cc(N3C(=O)CSC3c3ccc(O)c(OCC)c3)ccc2N=4)ccc1O (configuration not stated),28.2,> 100 µM,,> 100,47.6,41.4,> 100,> 100 µM,> 100,> 100,> 100,93.9 µM,> 100,> 100,> 100,> 100,> 100,> 100,> 100
C=CCc1cccc2cc(C(=O)Nc3ccc(C)cc3)c(=N)oc12,,> 100 µM,> 100 µM,> 100,> 100,> 100,> 100,> 100 µM,> 100,> 100,> 100,> 100 µM,> 100,> 100,> 100,> 100,> 100,> 100,> 100
O=C1/C(=C/C=C/c2ccccc2)N=C(c2ccccc2)N1c1ccc(S(=O)(=O)Nc2nccs2)cc1,45.9,84.7 µM,85.2 µM,> 100,63.8,> 100,> 100,> 100 µM,49.8,> 100,> 100,86.6 µM,> 100,> 100,> 100,> 100,,> 100,> 100
CC(=O)OCC1=CC2OC(=O)C3=COC(OC4OC(CO)C(O)C(O)C4O)C1C32 (configuration not stated),> 100,> 100 µM,> 100 µM,,> 100,> 100,> 100,> 100 µM,> 100,> 100,> 100,> 100 µM,> 100,> 100,> 100,> 100,> 100,> 100,> 100
C/C=C\C(CC(=O)NCCC1CN(C(=O)OCc2ccccc2)c2ccccc21)CC(=O)OC (configuration not stated),,> 100 µM,> 100 µM,> 100,> 100,> 100,> 100,> 100 µM,> 100,> 100,> 100,> 100 µM,,> 100,,> 100,> 100,> 100,> 100
N#Cc1ccc([N+](=O)[O-])cc1NC(N)=S,> 100,> 100 µM,> 100 µM,,,> 100,,> 100 µM,> 100,> 100,> 100,> 100 µM,,> 100,,,,,
CCOC(=O)[C@@]1(C(C)=O)CC(C)=C(C)C[S@]1=O,,> 100 µM,> 100 µM,> 100,> 100,> 100,> 100,> 100 µM,,> 100,> 100,> 100 µM,,> 100,> 100,> 100,> 100,> 100,> 100
CC(C)C1=CC2=CC[C@@H]3[C@](C)(CCC[C@@]3(C)C(=O)O)[C@H]2CC1,> 100,> 89.3 µM,> 100 µM,> 100,> 89.9,> 80.2,,> 100 µM,45.9,> 100,> 100,> 78.9 µM,> 88.3,> 100,,,,,
CC[C@]1(Cc2ccc(OC)c(OC)c2)C2CC(C(=O)OC)ON2O[C@H](OCc2ccccc2)[C@@H]1OC(C)=O (some centres not stated),,> 100 µM,> 100 µM,> 100,> 100,> 100,> 100,> 100 µM,> 100,> 100,> 100,> 100 µM,66.1,> 100,> 100,> 100,> 100,> 100,
O=C1NC(=O)C(C(c2ccc([N+](=O)[O-])cc2)C2C(=O)NC(=O)NC2=O)C(=O)N1,,,,> 100,> 100,> 100,> 100,> 100 µM,> 100,> 100,> 100,> 100 µM,> 100,> 100,> 100,> 100,> 100,> 100,> 100

# Source: PubChem BioAssay (NCI)
